# Test results reported in US12281205B2, “Modified antibacterial compositions and methods” (priority 2016, dated 2025).
# Values joined by “and” are separate entries in the source; they are usually repeats but may differ in a detail not shown here. Equal entries are not always repeated. Where two headings read alike, the source gives them in different places. Where no end group is shown, it is not given here.
# Columns and labels:
# [1] = system: MDR A. baumannii (FADDI-AB156); test: Antibiogram of MDR A. baumannii; type: cell-based, Acinetobacter baumannii; details: for Susceptibility: CLSI resistant breakpoints
# [2] = system: MDR P. aeruginosa (FADDI-PA067); test: Antibiogram of MDR P. aeruginosa; type: cell-based, Pseudomonas aeruginosa; details: for Susceptibility: CLSI resistant breakpoints
# [3] = system: CMDR A. baumannii (FADDI-AB156); test: Mouse peritonitis model; type: in vivo, C57BL/6 mice; details: 24 h infection
# E. coli = test: Minimum inhibitory concentration (MIC), broth microdilution; type: cell-based; details: Escherichia coli
# Experimental: The MICs of the PAMAM dendrimers were determined using a broth microdilution method. After the preparation of a dilution series of each compound and the addition of bacterial cells (Note: steps identical to that taken for the measurement of MBC), the optical density readings of each well at 630 nm were measured as a function of time using a microplate reader (Multiskan Ascent, Pathtech Pty. Ltd.). Positive controls containing cells alone were incorporated. Optical density was plotted against polymer concentration and linear regression analysis was used to determine the lowest concentration (MIC) at which the optical density reading becomes zero. A minimum of two independent experiments (biological replicates) of the assay were conducted and two technical replicates were used in each experiment for each bacterium, polymer, and concentration. Data is expressed as mean±standard deviation (SD) of the biological replicates and analysed using student's t-test.
# [4] = system: sheep red blood cells (RBCs); test: Hemolysis assay
# Experimental: Fresh sheep red blood cells (RBCs) were diluted 1 in 20 in PBS (pH 7.4), pelleted by centrifugation, and washed three times in PBS (1000 g, 10 min). The RBCs were counted using a cell counter (Coulter Particle Counter Z series, Beckman Coulter) and diluted to a final concentration of 2×10^7 cells/mL. 100 μL aliquots of the RBC solution were seeded into a V-bottomed 96-well plate containing 100 μL of test compound solution of varying concentrations (4-256 μg/mL) and incubated in a humidified atmosphere containing 5% CO2 at 37° C. for 2 h. Following incubation, the 96-well plate was centrifuged (1000 g, 10 min) and aliquots (100 μL) of supernatant were transferred to a flat-bottomed 96-well plate. Hemoglobin release upon lysis of the RBCs was monitored at 405 nm using a microplate reader (PerkinElmer 1420 Multilabel Counter VICTOR^3). Positive and negative controls for hemolysis were taken as RBC lysed with 0.5% Triton X-100 (1:1 v/v) and RBC suspension in PBS, respectively. The percentage of hemolysis was calculated using the following formula:
# The percentage hemolysis was plotted against peptide polymer concentration and linear regression analysis was used to determine the hemolytic concentration needed to lyse 50% (HC50) of RBCs. Two independent runs of the assay were conducted and two replicates were used in each run for each compound and concentration.
# Fresh sheep red blood cells (RBCs) were diluted 1 in 20 in PBS (pH 7.4), pelleted by centrifugation, and washed three times in PBS (1000 g, 10 min). The RBCs were counted using a cell counter (Coulter Particle Counter Z series, Beckman Coulter) and diluted to a final concentration of 2×10^7 cells/mL. 100 μL aliquots of the RBC solution were seeded into a V-bottomed 96-well plate containing 100 μL of polypeptide solution of varying concentrations (4-256 μg/mL) and incubated in a humidified atmosphere containing 5% CO2 at 37° C. for 2 h. Following incubation, the 96-well plate was centrifuged (1000 g, 10 min) and aliquots (100 μL) of supernatant were transferred to a flat-bottomed 96-well plate. Hemoglobin release upon lysis of the RBCs was monitored at 405 nm using a microplate reader (PerkinElmer 1420 Multilabel Counter VICTOR3). Positive and negative controls for hemolysis were taken as RBC lysed with 0.5% Triton X-100 (1:1 v/v) and RBC suspension in PBS, respectively. The percentage of hemolysis was calculated using the following formula:
# The percentage hemolysis was plotted against polypeptide concentration and linear regression analysis was used to determine the hemolytic concentration needed to lyse 50% (HC50) of RBCs. Two independent runs of the assay were conducted and two replicates were used in each run for each polypeptide and concentration.
# [5] = system: A. baumannii (ATCC 19606); test: Minimum bactericidal concentration (MBC); type: cell-based, Acinetobacter baumannii; set-up: unit not given here; details: MHB
# Experimental: (§1) A dilution series of each compound was made by diluting test compound stock in media to a desired range of concentrations and a final volume of 100 μL in each well of a 96-well plate. Bacterial cells (which gave an optical density reading of ˜0.7 at 650 nm for E. coli, K. pneumoniae, P. aeruginosa, and S. aureus, ˜0.5 at 650 nm for A. baumannii and ˜1.8 at 650 nm for S. mutans) were diluted to 2.5×10^6 cells/mL in media and 100 μL of the bacteria solution was added to each well. The 96-well plate was then incubated at 37° C. for 90 min. For each well, microbial solution was diluted with saline (0.9% NaCl solution) using an appropriate dilution factor and placed on an agar plate (identical to that used for bacteria culture). For E. coli, K. pneumoniae, A. baumannii, and S. aureus, the agar plates were incubated overnight at room temperature, and then at 37° C. with aeration for 2 h. For P. aeruginosa and S. mutans, the agar plates were incubated at 37° C., with the former being incubated overnight with aeration and the latter in an anaerobic chamber for 48 h. The number of colony-forming units (CFU) was counted and expressed as CFU/mL. Positive controls consisting of cells without any treatment were used. […] Data is expressed as mean±standard deviation (SD) of the biological replicates and analysed using student's t-test. […]
# [6] = system: P. aeruginosa (ATCC 47085); test: Minimum bactericidal concentration (MBC); type: cell-based, Pseudomonas aeruginosa; set-up: unit not given here; details: MHB
# Experimental: as §1
# E. coli (ATCC 25922) = test: Minimum bactericidal concentration (MBC); type: cell-based, Escherichia coli; set-up: unit not given here; details: MHB
# Text: (§2) The number of colony-forming units (CFU) was counted and expressed as CFU/mL. Positive controls consisting of cells without any treatment were used.
# as §2
# [7] = system: K. pneumoniae (ATCC 13883); test: Minimum bactericidal concentration (MBC); type: cell-based, Klebsiella pneumoniae; set-up: unit not given here; details: MHB
# Experimental: as §1
# [8] = concentration giving 50% hemolysis, 2 h
molecule,measurement,setting,value
NCC[C@H](O)C(=O)N[C@@H]1C[C@H](N)[C@@H](O[C@H]2O[C@H](CN)[C@@H](O)[C@H](O)[C@H]2O)[C@H](O)[C@H]1O[C@H]1O[C@H](CO)[C@@H](O)[C@H](N)[C@H]1O [Amikacin],Susceptibility,[1],Resistant
CC1(C)S[C@@H]2[C@H](NC(=O)[C@H](N)c3ccccc3)C(=O)N2[C@H]1C(=O)O [Ampicillin],MIC,[1]; Acinetobacter baumannii,≥ 91.6 µM
same,Susceptibility,[1],Resistant
C[C@H]1[C@H](NC(=O)/C(=N\OC(C)(C)C(=O)O)c2csc(N)n2)C(=O)N1S(=O)(=O)O [Aztreonam],Susceptibility,[2],Resistant
Cc1nnc(SCC2=C(C(=O)O)N3C(=O)[C@@H](NC(=O)Cn4cnnn4)[C@H]3SC2)s1 [Cefazolin],Susceptibility,[1],Resistant
CO/N=C(\C(=O)N[C@@H]1C(=O)N2C(C(=O)[O-])=C(C[N+]3(C)CCCC3)CS[C@H]12)c1csc(N)n1 [Cefepime],Susceptibility,[1],Resistant
CO[C@@]1(NC(=O)Cc2cccs2)C(=O)N2C(C(=O)O)=C(COC(N)=O)CS[C@@H]21 [Cefoxitin],Susceptibility,[1],Resistant
CC(C)(O/N=C(\C(=O)N[C@@H]1C(=O)N2C(C(=O)[O-])=C(C[n+]3ccccc3)CS[C@H]12)c1csc(N)n1)C(=O)O [Ceftazidime],Susceptibility,[2],Resistant
same,Susceptibility,[1],Resistant
CO/N=C(\C(=O)N[C@@H]1C(=O)N2C(C(=O)O)=C(CSc3nc(=O)c(=O)[nH]n3C)CS[C@H]12)c1csc(N)n1 [Ceftriaxone],Susceptibility,[1],Resistant
C[C@@H](O)[C@H]1C(=O)N2C(C(=O)O)=C(SCCN=CN)C[C@H]12 [Imipenem],survival,[3],50%
same,MIC,[1]; Acinetobacter baumannii,≥ 214 µM
C[C@@H](O)[C@H]1C(=O)N2C(C(=O)O)=C(S[C@@H]3CN[C@H](C(=O)N(C)C)C3)[C@H](C)[C@H]12 [Meropenem],Susceptibility,[1],Resistant
CCn1cc(C(=O)O)c(=O)c2ccc(C)nc21 [Nalidixic Acid],Susceptibility,[1],Resistant
CCn1cc(C(=O)O)c(=O)c2cc(F)c(N3CCNCC3)cc21 [Norfloxacin],Susceptibility,[1],Resistant
CCN1CCN(C(=O)N[C@@H](C(=O)N[C@@H]2C(=O)N3[C@@H]2SC(C)(C)[C@@H]3C(=O)O)c2ccccc2)C(=O)C1=O [Piperacillin],Susceptibility,[2],Resistant
CC1(C)S[C@@H]2[C@H](NC(=O)[C@H](C(=O)O)c3ccsc3)C(=O)N2[C@H]1C(=O)O [Ticarcillin],Susceptibility,[2],Resistant
NC[C@H]1O[C@H](O[C@H]2[C@H](O)[C@@H](O[C@H]3O[C@H](CO)[C@@H](O)[C@H](N)[C@H]3O)[C@H](N)C[C@@H]2N)[C@H](N)C[C@@H]1O [Tobramycin],Susceptibility,[2],Resistant
same,MIC,[1]; Acinetobacter baumannii,≥ 34.2 µM
same,Susceptibility,[1],Resistant
COc1cc(Cc2cnc(N)nc2N)cc(OC)c1OC [Trimethoprim],Susceptibility,[1],Resistant
C[C@H]1c2cccc(O)c2C(=O)C2=C(O)[C@]3(O)C(=O)C(C(N)=O)=C(O)[C@@H](N(C)C)[C@@H]3[C@@H](O)[C@@H]21 [doxycycline],MIC,E. coli,0.5 µg/mL
Amoxicillin/Clavulanic Acid,MIC,[1],≥87.6 µM
same,Susceptibility,[1],Resistant
Colistin Sulfate,"Susceptibility, concentration in parentheses",[2],> 110.8 µM
same,Susceptibility,[2],Resistant
same,MIC,[1],13.8 µM
same,Susceptibility,[1],Resistant
GIGKFLHSAKKFGKAFVGEIMNS-NH2 [Magainin II],HC50,[4]; [8],81.1 µM
same,HC50,[4]; extrapolated from FIG. 59,33 μg/mL and 81.1 μM
Gentamicin,Susceptibility,[2],Resistant
same,MIC,[1],≥33.5 µM
same,Susceptibility,[1],Resistant
Ovispirin: antimicrobial peptide NH2- KNLRRIIRKIIHIIKKYG-COOH (H-KNLRRIIRKIIHIIKKYG-OH; also: SNAPP conjugate),HC50,[4]; [8],61.8 µM
same,HC50,[4]; extrapolated from FIG. 59,27 μg/mL and 61.8 μM
same,MBC,[5],2.21 ± 0.88
same,MBC,[6],95.49 ± 9.73
same,MBC,E. coli (ATCC 25922),8.39 ± 0.44
same,MBC,[7],11.49 ± 4.86
Piperacillin/Tazobactam,MIC,[1],≥247.3 µM
same,Susceptibility,[1],Resistant
Ticarcillin/Clavulanic Aid,MIC,[1],≥333.0 µM
same,Susceptibility,[1],Resistant
Trimethoprim/Sulfamethoxazole,MIC,[1],≥1102.2 µM
same,Susceptibility,[1],Resistant
